Source: ChEMBL document CHEMBL1201862, “PubChem BioAssay data set” (2004)
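Values below derive from 48-hour exposures of cells grown in 96-well plates, with endpoints linearly interpolated between the two concentrations bracketing the appropriate inhibition level. Here, GI50 denotes the concentration required for 50% inhibition of growth.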 The source made the active and inactive calls. Rule as the data show it: active = GI50 up to about 1.1 µM and inactive = higher.

Tests used:
Experiment in all cases: inhibition of tumour cell growth, NCI panel, 48 h
M14 = system: M14
HOP-92 = system: HOP-92
SNB-75 = system: SNB-75
IGROV-1 = system: IGROV-1
SK-MEL-2 = system: SK-MEL-2
SK-OV-3 = system: SK-OV-3
CCRF-CEM = system: CCRF-CEM
OVCAR-4 = system: OVCAR-4
OVCAR-5 = system: OVCAR-5
SF-295 = system: SF-295
SR = system: SR
LOX IMVI = system: LOX IMVI
UACC-257 = system: UACC-257
SNB-19 = system: SNB-19
K562 = system: K562
NCI-H23 = system: NCI-H23
DU-145 = system: DU-145
U-251 = system: U-251
RPMI-8226 = system: RPMI-8226

Structure (SMILES)	GI50 (M14)	GI50 (HOP-92)	GI50 (SNB-75)	GI50 (IGROV-1)	GI50 (SK-MEL-2)	GI50 (SK-OV-3)	GI50 (CCRF-CEM)	GI50 (OVCAR-4)	GI50 (OVCAR-5)	GI50 (SF-295)	GI50 (SR)	GI50 (LOX IMVI)	GI50 (UACC-257)	GI50 (SNB-19)	GI50 (K562)	GI50 (NCI-H23)	GI50 (DU-145)	GI50 (U-251)	GI50 (RPMI-8226)
COC(=O)C1=C(C(=O)OC)SC2(S1)C(C(=O)OC)=C(C(=O)OC)Sc1c2ss/c1=N/C(C)(C)C	1.66 µM (inactive)	1.3 µM (inactive)	1.45 µM (inactive)	1.4 µM (inactive)	1.34 µM (inactive)	5.18 µM (inactive)	0.345 µM (active)	1.79 µM (inactive)	1.87 µM (inactive)	14.1 µM (inactive)	0.366 µM (active)	1.04 µM (active)	1.47 µM (inactive)	2.13 µM (inactive)	2.21 µM (inactive)	2.23 µM (inactive)	0.877 µM (active)	1.72 µM (inactive)	
Oc1ccccc1/C=N/N1C(=S)N(C23CC4CC(CC(C4)C2)C3)C(=N\c2ccccc2)/C1=N/c1ccccc1	> 100 µM (inactive)	29.7 µM (inactive)		> 100 µM (inactive)	> 100 µM (inactive)	> 100 µM (inactive)			> 100 µM (inactive)	> 100 µM (inactive)	43.3 µM (inactive)		> 100 µM (inactive)	77.4 µM (inactive)	4.46 µM (inactive)	> 100 µM (inactive)	> 100 µM (inactive)	76.6 µM (inactive)	6.15 µM (inactive)
N#CC1C(=O)NC(=O)C(C#N)C1c1ccc(Cl)c(Cl)c1 (stereo unspecified)	23.4 µM (inactive)	37.4 µM (inactive)	25.2 µM (inactive)	18.1 µM (inactive)	80.2 µM (inactive)	> 100 µM (inactive)	13.6 µM (inactive)	81.8 µM (inactive)	23.4 µM (inactive)	40.3 µM (inactive)	18.2 µM (inactive)	17.1 µM (inactive)	35.9 µM (inactive)	91.2 µM (inactive)	28.8 µM (inactive)	21.4 µM (inactive)	37.5 µM (inactive)	23.7 µM (inactive)	
COc1ccc2cc(C(C)C(=O)N3CCOC3=O)ccc2c1 (stereo unspecified)	> 100 µM (inactive)	> 100 µM (inactive)	44.7 µM (inactive)	> 100 µM (inactive)		> 100 µM (inactive)	> 100 µM (inactive)	> 100 µM (inactive)	> 100 µM (inactive)	> 100 µM (inactive)	> 100 µM (inactive)	> 100 µM (inactive)	> 100 µM (inactive)	> 100 µM (inactive)	> 100 µM (inactive)	> 100 µM (inactive)	> 100 µM (inactive)	> 100 µM (inactive)	> 100 µM (inactive)
COc1ccc(-n2c(-c3ccccc3)cc(-c3cccs3)c2-c2cccs2)cc1	> 100 µM (inactive)	> 100 µM (inactive)	88.9 µM (inactive)	> 100 µM (inactive)		> 100 µM (inactive)	0.0818 µM (active)	56.6 µM (inactive)	> 100 µM (inactive)	> 100 µM (inactive)	> 100 µM (inactive)	> 100 µM (inactive)	> 100 µM (inactive)			6.73 µM (inactive)	> 100 µM (inactive)	> 100 µM (inactive)	> 100 µM (inactive)
CCOC(=O)c1sc2c(c1OC(=O)c1ccc(OC)cc1)c(=O)n(-c1ccccc1)c(=S)n2-c1ccccc1	> 100 µM (inactive)	20.9 µM (inactive)	> 100 µM (inactive)	> 100 µM (inactive)		> 100 µM (inactive)	> 100 µM (inactive)	10.2 µM (inactive)	> 100 µM (inactive)	> 100 µM (inactive)	36.5 µM (inactive)	> 100 µM (inactive)	> 100 µM (inactive)	> 100 µM (inactive)	> 100 µM (inactive)	> 100 µM (inactive)	> 100 µM (inactive)	> 100 µM (inactive)	> 100 µM (inactive)
CC1(c2ccc(Cl)cc2)C=C(c2ccc(Cl)cc2)C(C#N)=C(C(C#N)C#N)N1.CNC (stereo unspecified)	18.6 µM (inactive)		18.8 µM (inactive)	12.9 µM (inactive)	19.5 µM (inactive)	17.1 µM (inactive)	5.02 µM (inactive)	15.1 µM (inactive)	18.1 µM (inactive)	17.6 µM (inactive)	15.7 µM (inactive)	17 µM (inactive)	17.5 µM (inactive)	18.2 µM (inactive)	19.2 µM (inactive)	15.3 µM (inactive)	16.1 µM (inactive)	16.1 µM (inactive)	34.4 µM (inactive)
